Experimental data taken from BindingDB's records for doi:10.1021/acs.biochem.7b00078 (The University of Queensland, 2017).
One block for each compound: values may come before it. Peptide text beside a SMILES is read from it. * marks the point of attachment. FITC = O=C1OC2(c3ccc(O)cc3Oc3cc(O)ccc32)c2ccc(NC(=S)*)cc21; Biotin = O=C1N[C@H]2[C@H](CS[C@H]2CCCCC(=O)*)N1

Key:
[1] = target: T1, Na(+)/H(+) exchange regulatory cofactor NHE-RF1 [133-300] (Homo sapiens, UniProt O14745); test: Surface Plasmon Resonance (SPR); settings: pH 7.4; 15 °C
T1 construct: 133-300
T1 sequence (O14745 whole entry): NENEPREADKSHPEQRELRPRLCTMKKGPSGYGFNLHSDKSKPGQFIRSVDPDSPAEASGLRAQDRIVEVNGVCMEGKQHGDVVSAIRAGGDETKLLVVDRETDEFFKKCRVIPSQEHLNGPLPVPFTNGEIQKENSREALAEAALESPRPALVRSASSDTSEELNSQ
Method: (§1) SPR measurements were performed with a Biacore X100 instrument (GE Healthcare Life Sciences, Piscataway, NJ) at 15.0 °C. The biotinylated PTHRct-22 ligand was immobilized on an SA streptavidin sensor chip (GE Healthcare Life Sciences) usingthe manufacturer's protocol until the desired response target was reached. PDZ1 or PDZ2 analyte, dissolved in 10 mM HEPES buffer (pH 7.4), 150 mM NaCl, 3 mM EDTA, and 0.005% surfactant polysorbate 20, was injected on the PTHRct-coated sensor surface at increasing concentrations from 10 nM to 100 μM. At the end of each ligand injection−dissociation cycle, the sensor chip was regenerated with 4.0 M MgCl2, 50 mM triethylamine (pH 9.15), and HBS-EP buffer.

[2] = target: T2, Na(+)/H(+) exchange regulatory cofactor NHE-RF1 [1-140] (Homo sapiens, UniProt O14745); test: Surface Plasmon Resonance (SPR); settings: pH 7.4; 15 °C
T2 construct: 1-140
T2 sequence (O14745 whole entry): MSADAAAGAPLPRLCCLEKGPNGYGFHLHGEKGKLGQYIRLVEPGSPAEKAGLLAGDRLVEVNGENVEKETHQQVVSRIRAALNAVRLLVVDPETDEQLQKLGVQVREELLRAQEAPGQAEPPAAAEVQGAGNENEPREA
Method: as §1

[3] = target: T1, Na(+)/H(+) exchange regulatory cofactor NHE-RF1 [133-300]; test: Fluorescent Polarization Competition Assay; settings: 23 °C
Method: (§2) Competition assays were performed in FP buffer (DTT was avoided for Cys-PTHRct-9) containing fixed concentrations of both the fluorescently labeled peptide andprotein following the protocol described by Madden and coworkers. [Cushing et al., Biochemistry, 47:10084-10098] This mixture was equilibrated for 20 min in the dark at room temperature. The unlabeled competitor peptide was dissolved and serially diluted in storage buffer supplemented with 5% DMSO (Sigma). Each serial dilution was aliquoted at 1/10 final volume, to which was added 9/10 volume of the protein/peptide mixture. All FP assays were performed in a 96-well format. Polarized fluorescence intensities were measured at 23 °C with a PerkinElmer Wallac Victor3 multilabel counter using excitation and emission wavelengths of 485 and 535 nm, respectively, for the FITC-labeled peptide.

[4] = target: T2, Na(+)/H(+) exchange regulatory cofactor NHE-RF1 [1-140]; test: Fluorescent Polarization Competition Assay; settings: 23 °C
Method: as §2

[5] = target: T1, Na(+)/H(+) exchange regulatory cofactor NHE-RF1 [133-300]; test: Isothermal Titration Calorimetry (ITC); settings: pH 8; 25 °C
Method: (§3) ITC measurements were conducted on a Microcal iTC200 (Malvern Instruments) in buffer consisting of 25 mM Tris (pH 8.0) and 100 mM NaCl. Proteins were exchanged into ITC buffer by gel filtration using a Superdex200 column. Wild-type modified synthetic peptides were purchased from Genscript and are described in Results. One millimolar PTHR peptides (wild-type and mutant variants) were titrated into 100 μM individual proteins, PDZ1 or PDZ2, at 25 °C.

[6] = target: T2, Na(+)/H(+) exchange regulatory cofactor NHE-RF1 [1-140]; test: Isothermal Titration Calorimetry (ITC); settings: pH 8; 25 °C
Method: as §3

Kd [1]: 11.5 µM
Kd [2]: 16 µM
Ki ([3]; pH 7.4): 7 µM
Compound: CSCC[C@H](NC(=O)[C@@H](NC(=O)[C@@H](NC(=O)[C@H](CCC(=O)O)NC(=O)[C@H](Cc1c[nH]c2ccccc12)NC(=O)[C@H](CCC(=O)O)NC(=O)[C@H](CCC(=O)O)NC(=O)[C@H](CCC(N)=O)NC(=O)[C@H](CC(C)C)NC(=O)[C@H](CC(C)C)NC(=O)[C@H](C)NC(=O)[C@@H]1CCCN1C(=O)[C@@H]1CCCN1C(=O)[C@H](CCCNC(=N)N)NC(=O)[C@H](CCC(=O)O)NC(=O)[C@@H]1CCCN1C(=O)[C@H](CS)NC(=O)[C@H](CO)NC(=O)[C@H](C)NC(=O)[C@H](CCC(=O)O)NC(=O)[C@H](CCC(=O)O)NC(=O)[C@H](CC(=O)O)NC(=O)CCCC[C@@H]1SC[C@@H]2NC(=O)N[C@@H]21)[C@@H](C)O)C(C)C)C(=O)O (Biotin-DEEASCPERPPALLQEEWETVM-OH)

Kd ([3]; pH 7): 600 nM
Kd ([4]; pH 7): 1000 nM
Compound: CSCC[C@H](NC(=O)[C@@H](NC(=O)[C@@H](NC(=O)[C@H](CCC(=O)O)NC(=O)[C@H](Cc1c[nH]c2ccccc12)NC(=O)[C@H](CCC(=O)O)NC(=O)[C@H](CCC(=O)O)NC(=O)[C@H](CCC(N)=O)NC(=O)[C@H](CC(C)C)NC(=S)Nc1ccc2c(c1)C(=O)OC21c2ccc(O)cc2Oc2cc(O)ccc21)[C@@H](C)O)C(C)C)C(=O)O [FITC-LQEEWETVM] ({FITC}-LQEEWETVM-OH)

Ki ([4]; pH 7.4): 1400 nM
Compound: H-LQEEWETVM-OH [LQEEWETVM]

Kd [5]: 9.7 µM
Kd [6]: 11.7 µM
Compound: H-QEEWETVM-OH [QEEWETVM]
